PubChem BioAssay (NCI)
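Five concentrations, 48 hours, 96-well plates. Definition used: TGI = concentration required for complete inhibition of growth.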

The compounds below were run on HCC-2998 colon (assay: growth of human tumour cells (NCI), 48 h).

SMILES | TGI [µM]
OC1(CCc2ccccc2)COC(C(F)(F)F)(C(F)(F)F)C1 (stereo unspecified) | > 100
CCC(C)C(C(=O)N/N=C1/SCC(=O)N1c1ccccc1)C(=O)N/N=C1/SCC(=O)N1c1ccccc1 (stereo unspecified) | > 100
Cc1c(C)c2c(c(N)c1C#N)C(=O)N(CCc1ccccc1)C2=O | > 100

The compounds below were run on CAKI-1 renal (assay: growth of human tumour cells (NCI), 48 h).

SMILES | TGI [µM]
Cc1oc2c(c1C)S(=O)(=O)C(C#N)C(c1ccccc1)N2 (stereo unspecified) | > 100
CC(=O)Oc1cc2c(n(C)c1=O)-c1ccccc1C2 | 78
COc1ccc2cc(Oc3ccc(Cl)cc3)c(=O)oc2c1 | > 100
O=c1[nH]n(Cc2ccccc2Cl)c2ccc([N+](=O)[O-])cc12 | > 100
CC1=NN(C(=O)CC(=O)Nc2ccc(C)cc2)C(=O)C1N=Nc1ccc(C(=O)O)cc1 (stereo unspecified) | > 100
COC(=O)Nc1nc2ccc(S(=O)(=O)NC(CC(C)C)C(=O)OC)cc2[nH]1 (stereo unspecified) | > 100
OC(CCN1CCCCC1)(c1ccccc1)c1ccccc1 | > 100
COC1CC(C)C(OC)C2=CC(=O)C=C(NC(=O)/C(C)=C/C=C\C(C)C(OC(N)=O)/C(C)=C\C(C)C1OC)C2=O (stereo unspecified) | 6.6
O=C(Nc1cccc2ccccc12)Nn1cnnc1 | > 100
CN(C)C=Nc1cccc2nsnc12 | > 100
COc1cc(S(=O)(=O)Nc2nc(-c3ccc(N4C(=O)CSC4c4cccs4)cc3)cs2)ccc1Cl (stereo unspecified) | > 100
COc1cc(S(=O)(=O)Nc2nc(-c3ccc(N4C(=O)C(CC(=O)O)SC4c4ccccc4O)cc3)cs2)ccc1Cl (stereo unspecified) | > 100
COC(=O)C(C)NP(=O)(N1CC1)N1CC1 (stereo unspecified) | > 100
N#C/C(=C\c1cn(Cc2ccccc2)c2ccccc12)c1nn(-c2ccccc2)c(N)c1C#N | 47
Ic1ncnc2c1ncn2C1CCCO1 (stereo unspecified) | > 100
COc1ccc(Nc2nnc(CCCCCCCCc3nnc(Nc4ccc(OC)cc4)o3)o2)cc1 | > 100
COc1cc(OCc2ccc3nc(-c4ccccc4)c(Cl)nc3c2)cc(OC)c1OC | > 100
CC1(C)C2CCC3=C(CCC4(C)C5C[C@](C)(C(=O)O)CC[C@]5(C)CC[C@]34C)[C@@]2(C)CC[C@@H]1O (stereo partly specified) | 37.7
O=[n+]1c2ccccc2n([O-])c2ccccc21 | > 100
CC[C@](O)(CC(=O)O[C@H]1C(=O)O[C@@H]2C[C@H]3C(C)=CC(=O)[C@@H](O)[C@]3(C)[C@H]3[C@@]4(O)OC[C@]32[C@@H]1[C@@H](C)[C@H]4O)C(C)C | 0.0398
CC(C)(C)O/C=C1/C(=O)OC2C[C@@H](O[Si](C)(C)C(C)(C)C)CC12 (stereo partly specified) | > 100
O=C1CC(CC(O)[C@@H]2CCCC[C@@H]2O)CC(=O)N1c1ccccc1 (stereo partly specified) | > 100
O=C1CC(=O)NC(=NN2C(=O)/C(=C/C(=O)c3ccco3)N=C2c2ccccc2)N1 | > 100
OC1(CCc2ccccc2)COC(C(F)(F)F)(C(F)(F)F)C1 (stereo unspecified) | > 100
CCC(C)C(C(=O)N/N=C1/SCC(=O)N1c1ccccc1)C(=O)N/N=C1/SCC(=O)N1c1ccccc1 (stereo unspecified) | > 100
Cc1c(C)c2c(c(N)c1C#N)C(=O)N(CCc1ccccc1)C2=O | > 100

The compounds below were run on NCI-H23 lung (assay: growth of human tumour cells (NCI), 48 h).

SMILES | TGI [µM]
Cc1oc2c(c1C)S(=O)(=O)C(C#N)C(c1ccccc1)N2 (stereo unspecified) | > 100
CC(=O)Oc1cc2c(n(C)c1=O)-c1ccccc1C2 | > 100
COc1ccc2cc(Oc3ccc(Cl)cc3)c(=O)oc2c1 | > 100
O=c1[nH]n(Cc2ccccc2Cl)c2ccc([N+](=O)[O-])cc12 | > 100
CC1=NN(C(=O)CC(=O)Nc2ccc(C)cc2)C(=O)C1N=Nc1ccc(C(=O)O)cc1 (stereo unspecified) | > 100
CCOC(=O)CCC(NC(=O)c1ccc(CNc2nc3ccccc3nc2C(=O)OCC)cc1)C(=O)OCC (stereo unspecified) | > 100
COC(=O)Nc1nc2ccc(S(=O)(=O)NC(CC(C)C)C(=O)OC)cc2[nH]1 (stereo unspecified) | > 100
OC(CCN1CCCCC1)(c1ccccc1)c1ccccc1 | > 100
COC1CC(C)C(OC)C2=CC(=O)C=C(NC(=O)/C(C)=C/C=C\C(C)C(OC(N)=O)/C(C)=C\C(C)C1OC)C2=O (stereo unspecified) | 13.8
O=C(Nc1cccc2ccccc12)Nn1cnnc1 | > 100
CN(C)C=Nc1cccc2nsnc12 | > 100
COc1cc(S(=O)(=O)Nc2nc(-c3ccc(N4C(=O)CSC4c4cccs4)cc3)cs2)ccc1Cl (stereo unspecified) | 89
COc1cc(S(=O)(=O)Nc2nc(-c3ccc(N4C(=O)C(CC(=O)O)SC4c4ccccc4O)cc3)cs2)ccc1Cl (stereo unspecified) | 86.7
COC(=O)C(C)NP(=O)(N1CC1)N1CC1 (stereo unspecified) | > 100
N#C/C(=C\c1cn(Cc2ccccc2)c2ccccc12)c1nn(-c2ccccc2)c(N)c1C#N | 29.7
Ic1ncnc2c1ncn2C1CCCO1 (stereo unspecified) | > 100
COc1ccc(Nc2nnc(CCCCCCCCc3nnc(Nc4ccc(OC)cc4)o3)o2)cc1 | > 100
COc1cc(OCc2ccc3nc(-c4ccccc4)c(Cl)nc3c2)cc(OC)c1OC | > 100
CC1(C)C2CCC3=C(CCC4(C)C5C[C@](C)(C(=O)O)CC[C@]5(C)CC[C@]34C)[C@@]2(C)CC[C@@H]1O (stereo partly specified) | 43.2
O=[n+]1c2ccccc2n([O-])c2ccccc21 | > 100
CC[C@](O)(CC(=O)O[C@H]1C(=O)O[C@@H]2C[C@H]3C(C)=CC(=O)[C@@H](O)[C@]3(C)[C@H]3[C@@]4(O)OC[C@]32[C@@H]1[C@@H](C)[C@H]4O)C(C)C | < 0.01
CC(C)(C)O/C=C1/C(=O)OC2C[C@@H](O[Si](C)(C)C(C)(C)C)CC12 (stereo partly specified) | > 100
O=C1CC(CC(O)[C@@H]2CCCC[C@@H]2O)CC(=O)N1c1ccccc1 (stereo partly specified) | > 100
O=C1CC(=O)NC(=NN2C(=O)/C(=C/C(=O)c3ccco3)N=C2c2ccccc2)N1 | > 100
OC1(CCc2ccccc2)COC(C(F)(F)F)(C(F)(F)F)C1 (stereo unspecified) | > 100
CCC(C)C(C(=O)N/N=C1/SCC(=O)N1c1ccccc1)C(=O)N/N=C1/SCC(=O)N1c1ccccc1 (stereo unspecified) | > 100

These compounds were tested on SN12C renal (assay: growth of human tumour cells (NCI), 48 h).

SMILES | TGI [µM]
Cc1oc2c(c1C)S(=O)(=O)C(C#N)C(c1ccccc1)N2 (stereo unspecified) | > 100
